According to the NIST ThermoML archive (doi:10.1021/je100757w):
Numbers after ± are expanded uncertainties.

Key:
[1] = for surface tension liquid-gas: Ring tensiometer; for mass density: 101.3 kPa, Liquid
[2] = xn = mol fraction of the nth substance listed; details: x2 = 0; for surface tension liquid-gas: Ring tensiometer; for mass density: 101.3 kPa, Liquid

Row | Structure (SMILES) | surface tension liquid-gas ([1]; 298.15 K) [mN/m] | mass density ([1]; 298.15 K) [kg/m3] | surface tension liquid-gas ([1]; 308.15 K) [mN/m] | mass density ([1]; 308.15 K) [kg/m3] | surface tension liquid-gas ([1]; 318.15 K) [mN/m] | mass density ([1]; 318.15 K) [kg/m3] | surface tension liquid-gas ([2]; 298.15 K) [mN/m] | surface tension liquid-gas ([2]; 308.15 K) [mN/m] | mass density ([2]; 308.15 K) [kg/m3] | surface tension liquid-gas ([2]; 318.15 K) [mN/m]
1 | O [water] + COCCOCCOC | – | – | – | – | – | – | 71.37 ± 1 | 70.08 ± 1 | 994.06 ± 0.27 | 69.11 ± 1
2 | O [water] + COCCOCCOCCOC | – | – | – | – | – | – | 71.37 ± 1 | 70.08 ± 1 | 994.06 ± 0.27 | 69.11 ± 1
3 | O [water] + COCCOCCOCCOCCOC | – | – | – | – | – | – | 71.37 ± 1 | 70.08 ± 1 | 994.06 ± 0.27 | 69.11 ± 1

Now from value to molecule:

Row | surface tension liquid-gas ([1]; 298.15 K) [mN/m] | mass density ([1]; 298.15 K) [kg/m3] | surface tension liquid-gas ([1]; 308.15 K) [mN/m] | mass density ([1]; 308.15 K) [kg/m3] | surface tension liquid-gas ([1]; 318.15 K) [mN/m] | mass density ([1]; 318.15 K) [kg/m3] | surface tension liquid-gas ([2]; 298.15 K) [mN/m] | surface tension liquid-gas ([2]; 308.15 K) [mN/m] | mass density ([2]; 308.15 K) [kg/m3] | surface tension liquid-gas ([2]; 318.15 K) [mN/m] | Structure (SMILES)
4 | 33.74 ± 0.69 | 1007.26 ± 2.1 | 32.45 ± 0.67 | 997.98 ± 2.1 | 31.71 ± 0.65 | 988.72 ± 2.1 | – | – | – | – | COCCOCCOCCOCCOC [2,5,8,11,14-pentaoxapentadecane]
5 | 27.56 ± 0.48 | 981.23 ± 1.1 | 28.48 ± 0.5 | 971.71 ± 1.1 | 27.83 ± 0.49 | 962.19 ± 1.1 | – | – | – | – | COCCOCCOCCOC [2,5,8,11-tetraoxadodecane]
6 | 24.56 ± 0.41 | 940.01 ± 0.83 | 27.65 ± 0.45 | 930.03 ± 0.86 | 23.44 ± 0.4 | 919.99 ± 0.88 | – | – | – | – | COCCOCCOC [2,5,8-trioxanonane]
